The source of these data is patent US20260022142A1, “MACROCYCLIC IMMUNOMODULATORS” (Bristol-Myers Squibb Company, priority 2022, published 2026).

Molecules are shown by their SMILES. Numbered stars: 1 amine (or outer) side, 2 acyl side, 3 side chain; on linkers, the order of the positions; unused ones are H or OH. Bridge positions count the residues as written; N and C are the ends. Square brackets hold non-standard residues; d marks the D form. Peptide text beside a SMILES is read from it. * marks the point of attachment. Phe(3,4-F2) = N[C@@H](Cc1ccc(F)c(F)c1)C(=O)O; Bip = N[C@@H](Cc1ccc(-c2ccccc2)cc1)C(=O)O; Phe(3-Me) = Cc1cccc(C[C@H](N)C(=O)O)c1; X6 = O=C(Cc1ccc(CN[*:1])cc1)[*:2]; 4Pal = N[C@@H](Cc1ccncc1)C(=O)O; X1 = O=C(CN1CCN([*:1])CC1)[*:2]; Cha = N[C@@H](CC1CCCCC1)C(=O)O; Cit = NC(=O)NCCC[C@H](N)C(=O)O; 3Abz = Nc1cccc(C(=O)O)c1; Carboxymethyl = O=C(O)C*; Orn = NCCC[C@H](N)C(=O)O; Aun = NCCCCCCCCCCC(=O)O; Dab = NCC[C@H](N)C(=O)O; Dap = NC[C@H](N)C(=O)O; AEEA = NCCOCCOCC(=O)O; Ac3c = NC1(C(=O)O)CC1

The target of this assay is T1, PD-1/PD-L1 interaction (PE-labeled human PD-L1-Ig binding to Jurkat cell line over-expressing human PD-1) (Homo sapiens, UniProt Q15116).
T1 construct: expressed in transfected cells; host or cells: Jurkat
T1 sequence (Q15116 25-288): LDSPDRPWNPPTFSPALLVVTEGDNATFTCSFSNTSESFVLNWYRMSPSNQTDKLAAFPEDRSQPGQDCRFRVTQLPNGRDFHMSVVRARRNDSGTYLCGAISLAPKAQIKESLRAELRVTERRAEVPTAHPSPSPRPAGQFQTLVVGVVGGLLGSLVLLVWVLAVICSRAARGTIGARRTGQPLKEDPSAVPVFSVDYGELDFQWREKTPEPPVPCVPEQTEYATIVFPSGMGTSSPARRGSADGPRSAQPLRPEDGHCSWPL
The assay is described as follows: Jurkat-PD-1 Cell Binding High-Content Screening Assay (CBA). In kind it is cell-based. To be noted: Jurkat cell line over-expressing human PD-1; PE-labeled PD-L1-Ig 20 nM final; read-out: Jurkat hPD1-PDL1 IC50. The method in brief:
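Read-out is high-content imaging of cell-bound phycoerythrin-tagged PD-L1-Ig on fixed, Hoechst-counterstained Jurkat cells that over-express human PD-1. Compound exposure lasts 2 h at 37° C before the labeled ligand (20 nM final) is added for a further hour.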
A word on the IC50: it is the concentration that gives 50% inhibition. As to `CC(C)C[C@H]1NC(=O)[C@H](CCCN)NC(=O)[C@H](Cc2ccc(O)cc2)NC(=O)[C@H](Cc2ccc(-c3ccccc3)cc2)NC(=O)[C@H](Cc2ccc(OCC(=O)O)cc2)NC(=O)[C@H](Cc2ccc(O)cc2)NC(=O)[C@H](CC(=O)O)NC(=O)[C@H](Cc2ccc(OCC(=O)O)cc2)NC(=O)[C@H](CN)NC(=O)CSC[C@@H](C(=O)N[C@@H](CCN)C(=O)NCCOCCOCC(=O)NCCCCCCCCCCC(=O)O)NC(=O)[C@H](CCCN)NC(=O)[C@H](C(C)C)NC(=O)[C@H](CC2CCCCC2)NC(=O)[C@H](CCN)NC1=O` [Compound 1311] ({CH2CO}-[Dap]Y(Carboxymethyl)DYY(Carboxymethyl)[Bip]Y[Orn][dL][Dab][Cha]V[Orn]C[Dab][AEEA][Aun]-OH; thioether N-14), the IC50 is 0.103 µM. With `CC(C)C[C@@H]1NC(=O)[C@H](Cc2c[nH]c3ccccc23)NC(=O)[C@H](CC(=O)O)NC(=O)[C@H](Cc2ccncc2)NC(=O)[C@H](Cc2ccc(OCC(=O)O)cc2)NC(=O)CSC[C@@H](C(=O)Nc2cccc(C(=O)NCCCCCCCCCCC(=O)O)c2)NC(=O)[C@H](CCCN)NC(=O)[C@H](C(C)C)NC(=O)[C@H](CC2CCCCC2)NC(=O)[C@H](CCN)NC(=O)[C@@H](CC(C)C)NC(=O)[C@H](CCCN)NC(=O)[C@H](C(C)C)NC(=O)[C@H](Cc2ccc(-c3ccccc3)cc2)NC1=O` [Compound 1312] ({CH2CO}-Y(Carboxymethyl)[4Pal]DWL[Bip]V[Orn][dL][Dab][Cha]V[Orn]C[3Abz][Aun]-OH; thioether N-14), the IC50 came to 0.105 µM. On to `CC(C)C[C@H]1NC(=O)[C@H](CCCN)NC(=O)[C@H](Cc2ccc(O)cc2)NC(=O)[C@H](Cc2ccc(-c3ccccc3)cc2)NC(=O)[C@H](Cc2ccc(OCC(=O)O)cc2)NC(=O)[C@H](Cc2ccc(F)c(F)c2)NC(=O)[C@H](CC(=O)O)NC(=O)[C@H](Cc2ccc(OCC(=O)O)cc2)NC(=O)[C@H](CN)NC(=O)CSC[C@@H](C(=O)N[C@@H](CCN)C(=O)NCCOCCOCC(=O)NCCCCCCCCCCC(=O)O)NC(=O)[C@H](CCCN)NC(=O)[C@H](C(C)C)NC(=O)[C@H](CC2CCCCC2)NC(=O)[C@H](CCN)NC1=O` [Compound 1313] ({CH2CO}-[Dap]Y(Carboxymethyl)D[Phe(3,4-F2)]Y(Carboxymethyl)[Bip]Y[Orn][dL][Dab][Cha]V[Orn]C[Dab][AEEA][Aun]-OH; thioether N-14), for which the IC50 was 0.109 µM. With `CC(C)C[C@@H]1NC(=O)[C@H](Cc2c[nH]c3ccccc23)NC(=O)[C@H](CC(=O)O)NC(=O)[C@H](Cc2ccncc2)NC(=O)[C@H](Cc2ccc(OCC(=O)O)cc2)NC(=O)CSC[C@@H](C(=O)N2CCN(CC(=O)NCCCCCCCCCCC(=O)O)CC2)NC(=O)[C@H](CCCNC(N)=O)NC(=O)[C@H](C(C)C)NC(=O)[C@H](CC2CCCCC2)NC(=O)[C@H](CCN)NC(=O)[C@@H](CC(C)C)NC(=O)[C@H](CCCN)NC(=O)[C@H](C(C)C)NC(=O)[C@H](Cc2ccc(-c3ccccc3)cc2)NC1=O` [Compound 1314] ({CH2CO}-Y(Carboxymethyl)[4Pal]DWL[Bip]V[Orn][dL][Dab][Cha]V[Cit]C[X1][Aun]-OH; thioether N-14), the IC50 turned out to be 0.11 µM. The figure for `Cc1cccc(C[C@@H]2NC(=O)[C@H](CC(=O)O)NC(=O)[C@H](Cc3ccc(OCC(=O)O)cc3)NC(=O)[C@H](CN)NC(=O)CSC[C@@H](C(=O)N[C@@H](CCN)C(=O)NCCCCCCCCCCC(=O)O)NC(=O)[C@@H](CO)NC(=O)[C@H](C(C)C)NC(=O)[C@H](CC3CCCCC3)NC(=O)[C@H](CCN)NC(=O)[C@@H](CC(C)C)NC(=O)[C@H](CCCN)NC(=O)[C@H](CCCNC(N)=O)NC(=O)[C@H](Cc3ccc(-c4ccccc4)cc3)NC(=O)[C@H](C(C)C)NC2=O)c1` [Compound 2000] ({CH2CO}-[Dap]Y(Carboxymethyl)D[Phe(3-Me)]V[Bip][Cit][Orn][dL][Dab][Cha]V[dS]C[Dab][Aun]-OH; thioether N-14) is 0.0143 µM. The figure for `Cc1cccc(C[C@@H]2NC(=O)[C@H](CC(=O)O)NC(=O)[C@H](Cc3ccc(OCC(=O)O)cc3)NC(=O)[C@H](CN)NC(=O)CSC[C@@H](C(=O)N[C@@H](CCCCN)C(=O)NCCCCCCCCCCC(=O)O)NC(=O)[C@@H](CO)NC(=O)[C@H](C(C)C)NC(=O)[C@H](CC3CCCCC3)NC(=O)[C@H](CCN)NC(=O)[C@@H](CC(C)C)NC(=O)[C@H](CCCN)NC(=O)[C@H](C(C)C)NC(=O)[C@H](Cc3ccc(-c4ccccc4)cc3)NC(=O)[C@H](C(C)C)NC2=O)c1` [Compound 2001] ({CH2CO}-[Dap]Y(Carboxymethyl)D[Phe(3-Me)]V[Bip]V[Orn][dL][Dab][Cha]V[dS]CK[Aun]-OH; thioether N-14) is 0.0324 µM; for `Cc1cccc(C[C@@H]2NC(=O)[C@H](CC(=O)O)NC(=O)[C@H](Cc3ccc(OCC(=O)O)cc3)NC(=O)[C@H](CN)NC(=O)CSC[C@@H](C(=O)NCc3ccc(CC(=O)N[C@@H](CCN)C(=O)NCCCCCCCCCCC(=O)O)cc3)NC(=O)[C@H](CN)NC(=O)[C@H](C(C)C)NC(=O)[C@H](CC3CCCCC3)NC(=O)[C@H](CCN)NC(=O)[C@@H](CC(C)C)NC(=O)[C@H](CCCN)NC(=O)[C@H](C(C)C)NC(=O)[C@H](Cc3ccc(-c4ccccc4)cc3)NC(=O)[C@H](C(C)C)NC2=O)c1` [Compound 2003] ({CH2CO}-[Dap]Y(Carboxymethyl)D[Phe(3-Me)]V[Bip]V[Orn][dL][Dab][Cha]V[Dap]C[X6][Dab][Aun]-OH; thioether N-14) it is 0.136 µM. Take `Cc1cccc(C[C@@H]2NC(=O)[C@H](CC(=O)O)NC(=O)[C@H](Cc3ccc(OCC(=O)O)cc3)NC(=O)[C@H](CN)NC(=O)CSC[C@@H](C(=O)N[C@@H](CCCN)C(=O)NCc3ccc(CC(=O)NCCCCCCCCCCC(=O)O)cc3)NC(=O)[C@H](CN)NC(=O)[C@H](C(C)C)NC(=O)[C@H](CC3CCCCC3)NC(=O)[C@H](CCN)NC(=O)[C@@H](CC(C)C)NC(=O)[C@H](CCCN)NC(=O)[C@H](C(C)C)NC(=O)[C@H](Cc3ccc(-c4ccccc4)cc3)NC(=O)[C@H](C(C)C)NC2=O)c1` [Compound 2004] ({CH2CO}-[Dap]Y(Carboxymethyl)D[Phe(3-Me)]V[Bip]V[Orn][dL][Dab][Cha]V[Dap]C[Orn][X6][Aun]-OH; thioether N-14): the IC50 came to 0.0186 µM. As to `CC[C@H](C)[C@@H]1NC(=O)[C@H](Cc2ccc(-c3ccccc3)cc2)NC(=O)[C@H](C(C)C)NC(=O)[C@H](Cc2c[nH]c3ccccc23)NC(=O)[C@H](CC(=O)O)NC(=O)[C@H](Cc2ccc(OCC(=O)O)cc2)NC(=O)[C@H](Cc2ccncc2)NC(=O)CSC[C@@H](C(=O)N[C@@H](CCCN)C(=O)NCCOCCOCC(=O)NC2(C(=O)NCCCCCCCCCCC(=O)O)CC2)NC(=O)[C@H]([C@@H](C)O)NC(=O)[C@H](C(C)C)NC(=O)[C@H](CC(C)C)NC(=O)[C@H](CCN)NC(=O)[C@@H](CC(C)C)NC(=O)[C@H](CCCN)NC1=O` [Compound 2005] ({CH2CO}-[4Pal]Y(Carboxymethyl)DWV[Bip]I[Orn][dL][Dab]LVTC[Orn][AEEA][Ac3c][Aun]-OH; thioether N-14), the IC50 stood at 0.0116 µM. As to `CC[C@H](C)[C@@H]1NC(=O)[C@H](Cc2ccc(-c3ccccc3)cc2)NC(=O)[C@H](C(C)C)NC(=O)[C@H](Cc2c[nH]c3ccccc23)NC(=O)[C@H](CC(=O)O)NC(=O)[C@H](Cc2ccc(OCC(=O)O)cc2)NC(=O)[C@H](Cc2ccncc2)NC(=O)CSC[C@@H](C(=O)N[C@@H](CCCN)C(=O)NCCOCCOCC(=O)NC2(C(=O)NCCCCCCCCCCC(=O)O)CC2)NC(=O)[C@H](CN)NC(=O)[C@H](C(C)C)NC(=O)[C@H](CC(C)C)NC(=O)[C@H](CCN)NC(=O)[C@@H](CC(C)C)NC(=O)[C@H](CCCN)NC1=O` [Compound 2006] ({CH2CO}-[4Pal]Y(Carboxymethyl)DWV[Bip]I[Orn][dL][Dab]LV[Dap]C[Orn][AEEA][Ac3c][Aun]-OH; thioether N-14), the IC50 amounted to 0.0077 µM. In the case of `Cc1cccc(C[C@@H]2NC(=O)[C@H](CC(=O)O)NC(=O)[C@H](Cc3ccc(OCC(=O)O)cc3)NC(=O)[C@H](CN)NC(=O)CSC[C@@H](C(=O)N[C@@H](C)C(=O)N[C@@H](CCCN)C(=O)NCC(=O)NCCCCCCCCCCC(=O)O)NC(=O)[C@H]([C@@H](C)O)NC(=O)[C@H](C(C)C)NC(=O)[C@H](CC3CCCCC3)NC(=O)[C@H](CCN)NC(=O)[C@@H](CC(C)C)NC(=O)[C@H](CCCN)NC(=O)[C@H](CCCNC(=N)N)NC(=O)[C@H](Cc3ccc(-c4ccccc4)cc3)NC(=O)[C@H](C(C)C)NC2=O)c1` [Compound 2007] ({CH2CO}-[Dap]Y(Carboxymethyl)D[Phe(3-Me)]V[Bip]R[Orn][dL][Dab][Cha]VTCA[Orn]G[Aun]-OH; thioether N-14), the IC50 is 0.0137 µM.

As for `Cc1cccc(C[C@@H]2NC(=O)[C@H](CC(=O)O)NC(=O)[C@H](Cc3ccc(OCC(=O)O)cc3)NC(=O)[C@H](CN)NC(=O)CSC[C@@H](C(=O)N[C@@H](CCCCN)C(=O)NCCCCCCCCCCC(=O)O)NC(=O)[C@@H](CO)NC(=O)[C@H](C(C)C)NC(=O)[C@H](CC(C)C)NC(=O)[C@H](CCN)NC(=O)[C@@H](CC(C)C)NC(=O)[C@H](CCCN)NC(=O)[C@H](C(C)C)NC(=O)[C@H](Cc3ccc(-c4ccccc4)cc3)NC(=O)[C@H](C(C)C)NC2=O)c1` [Compound 2009] ({CH2CO}-[Dap]Y(Carboxymethyl)D[Phe(3-Me)]V[Bip]V[Orn][dL][Dab]LV[dS]CK[Aun]-OH; thioether N-14), the IC50 was determined as 0.0172 µM. For `Cc1cccc(C[C@@H]2NC(=O)[C@H](CC(=O)O)NC(=O)[C@H](Cc3ccc(OCC(=O)O)cc3)NC(=O)[C@H](CN)NC(=O)CSC[C@@H](C(=O)NC3(C(=O)NCCCCCCCCCCC(=O)O)CC3)NC(=O)[C@H]([C@@H](C)O)NC(=O)[C@H](C(C)C)NC(=O)[C@H](CC3CCCCC3)NC(=O)[C@H](CCN)NC(=O)[C@@H](CC(C)C)NC(=O)[C@H](CCCN)NC(=O)[C@H](CCCNC(N)=O)NC(=O)[C@H](Cc3ccc(-c4ccccc4)cc3)NC(=O)[C@H](C(C)C)NC2=O)c1` [Compound 2010] ({CH2CO}-[Dap]Y(Carboxymethyl)D[Phe(3-Me)]V[Bip][Cit][Orn][dL][Dab][Cha]VTC[Ac3c][Aun]-OH; thioether N-14), the 50% inhibitory concentration (IC50) was 0.0153 µM.
